Like-named read-outs stand apart in the source and are kept apart here.
What was measured:
consensus OR12D3 = biological target: T1, consensus OR12D3 (Homo sapiens, UniProt Q9UGF7, A145V/C216Y/C85S/G168H/G17S/G27V/H163R/I149T/M273V/M276I/M298L/M46I/M7V/S165N/S188G/S42A/S70C/S86T/V219I/V48I/V84L/Y177C); assay: Luciferase assay, sulfur compounds; format: cell-based; conditions: in the presence of a copper ion
T1 construct: expressed in transfected cells; host or cells: HEK293
T1 sequence (Q9UGF7 1-315 M7V/G17S/G27V/S42A/M46I/V48I/S70C/V84L/C85S/S86T/A145V/I149T/H163R/S165N/G168H/Y177C/S188G/C216Y/V219I/M273V/M276I/M298L): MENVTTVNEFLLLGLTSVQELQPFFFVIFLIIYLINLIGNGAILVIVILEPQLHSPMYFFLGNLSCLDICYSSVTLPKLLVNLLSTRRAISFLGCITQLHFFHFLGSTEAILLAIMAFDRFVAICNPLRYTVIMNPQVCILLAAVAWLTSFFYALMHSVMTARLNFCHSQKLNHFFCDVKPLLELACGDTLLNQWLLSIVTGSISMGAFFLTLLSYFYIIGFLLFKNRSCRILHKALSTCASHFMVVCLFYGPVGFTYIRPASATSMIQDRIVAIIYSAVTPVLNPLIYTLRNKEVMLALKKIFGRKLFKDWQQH

consensus OR11H2 = biological target: T2, consensus OR11H2 (Homo sapiens, UniProt Q8NH07, A157T/A61V/C266F/D203A/E289A/F213L/F41L/F62C/G242R/I210T/I230L/I288V/I49T/K181M/K238L/L128F/L146H/L162I/M76I/N106T/N25R/P269S/Q137R/Q308R/Q30L/R68Q/S246A/S268G/T131A/T283A/T37K/V63A/Y156C); assay: Luciferase assay, sulfur compounds; format: cell-based; conditions: in the presence of a copper ion
T2 construct: expressed in transfected cells; host or cells: HEK293
T2 sequence (Q8NH07 12-326 N25R/Q30L/T37K/F41L/I49T/A61V/F62C/V63A/R68Q/M76I/N106T/L128F/T131A/Q137R/L146H/Y156C/A157T/L162I/K181M/D203A/I210T/F213L/I230L/K238L/G242R/S246A/C266F/S268G/P269S/T283A/I288V/E289A/Q308R): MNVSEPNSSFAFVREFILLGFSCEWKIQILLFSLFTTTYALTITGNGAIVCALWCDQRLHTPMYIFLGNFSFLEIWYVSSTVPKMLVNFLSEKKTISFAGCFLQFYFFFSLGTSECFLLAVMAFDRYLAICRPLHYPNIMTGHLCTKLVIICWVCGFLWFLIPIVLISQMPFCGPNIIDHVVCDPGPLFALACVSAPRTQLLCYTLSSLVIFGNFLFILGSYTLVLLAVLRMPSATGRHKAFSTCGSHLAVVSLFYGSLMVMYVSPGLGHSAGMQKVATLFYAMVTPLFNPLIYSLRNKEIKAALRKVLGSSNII

OR2T11 = biological target: T3, OR2T11 (Homo sapiens, UniProt Q8NH01); conditions: cited from earlier work
T3 sequence (Q8NH01 1-316): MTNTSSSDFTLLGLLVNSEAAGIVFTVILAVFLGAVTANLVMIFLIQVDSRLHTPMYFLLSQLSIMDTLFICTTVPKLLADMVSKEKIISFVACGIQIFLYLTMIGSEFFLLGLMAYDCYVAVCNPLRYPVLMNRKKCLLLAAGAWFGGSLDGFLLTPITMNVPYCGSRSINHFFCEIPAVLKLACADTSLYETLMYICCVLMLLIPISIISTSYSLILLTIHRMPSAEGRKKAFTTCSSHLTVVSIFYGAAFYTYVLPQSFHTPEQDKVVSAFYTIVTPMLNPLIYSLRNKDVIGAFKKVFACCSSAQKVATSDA

consensus OR2T27 = biological target: T4, consensus OR2T27 (Homo sapiens, UniProt Q8NH04, A21T/G216A/G235R/H131R/I13V/I140V/K45M/L36V/R69M/S88G/T37I/V304A/V305L/V43T/V8M/W142L); assay: Luciferase assay, sulfur compounds; format: cell-based; conditions: in the presence of a copper ion
T4 construct: expressed in transfected cells; host or cells: HEK293
T4 sequence (Q8NH04 with tags, fused parts or gaps with the stated changes): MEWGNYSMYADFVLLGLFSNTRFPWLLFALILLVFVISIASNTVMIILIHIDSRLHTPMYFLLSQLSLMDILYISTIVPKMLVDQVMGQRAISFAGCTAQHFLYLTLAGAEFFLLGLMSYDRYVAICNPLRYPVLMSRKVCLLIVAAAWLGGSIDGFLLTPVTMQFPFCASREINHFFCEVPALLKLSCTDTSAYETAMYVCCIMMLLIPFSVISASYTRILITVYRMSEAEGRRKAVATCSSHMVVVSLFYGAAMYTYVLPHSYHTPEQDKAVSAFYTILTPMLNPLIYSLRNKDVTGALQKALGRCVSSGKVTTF

consensus OR4K17 = biological target: T5, consensus OR4K17 (Homo sapiens, UniProt Q8NGC6, A163V/E24Q/F120Y/F158L/G263S/I192T/I205M/I296T/I46V/K226R/L86V/P230S/S297A/V197I/V23I/V81M/V91T); assay: Luciferase assay, sulfur compounds; format: cell-based
T5 construct: expressed in transfected cells; host or cells: HEK293
T5 sequence (Q8NGC6 with tags, fused parts or gaps V23I/E24Q/I46V/V81M/L86V/V91T/F120Y/F158L/A163V/I192T/V197I/I205M/K226R/P230S/G263S/I296T/S297A): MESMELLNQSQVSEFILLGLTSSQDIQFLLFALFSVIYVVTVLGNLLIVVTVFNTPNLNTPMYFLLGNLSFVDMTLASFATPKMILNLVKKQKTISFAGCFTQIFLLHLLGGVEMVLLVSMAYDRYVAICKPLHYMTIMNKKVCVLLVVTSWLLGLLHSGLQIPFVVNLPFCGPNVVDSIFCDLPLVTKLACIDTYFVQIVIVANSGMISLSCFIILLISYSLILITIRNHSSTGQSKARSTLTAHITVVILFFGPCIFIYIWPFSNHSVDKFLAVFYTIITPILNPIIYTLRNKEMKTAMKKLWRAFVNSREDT

[1] = Block E et al., Nat. Prod. Rep. 2017
[2] = in the presence of a copper ion

Question: With `CSSSC` [dimethyl trisulfide] as the compound, how does the “response of consensus OR12D3” value (consensus OR12D3) read?
Answer: Its value is “responded”.

Question: And the “response of consensus OR11H2” value (consensus OR11H2)?
Answer: The value was “responded”.

Question: Which results are given for `CS` [methyl mercaptan]?
Answer: response of OR2T11 (OR2T11; [1]): responds; response of OR2T11 (OR2T11; in the presence of a metal ion (JP-B-6122181)): respond; response of consensus OR2T27 (consensus OR2T27): responded; response of consensus OR4K17 (consensus OR4K17; [2]): responded; response of consensus OR12D3 (consensus OR12D3): responded; response of consensus OR11H2 (consensus OR11H2): responded

Question: What does the source list for `CSSC` [dimethyl disulfide]?
Answer: response of OR2T11 (OR2T11; [1]): responds; response of consensus OR2T27 (consensus OR2T27): responded; EC50 (consensus OR4K17): 568 µM; dose dependence of the response of consensus OR4K17 (consensus OR4K17; [2]): dose-dependent response; response of consensus OR4K17 (consensus OR4K17; [2]): responded; response of consensus OR12D3 (consensus OR12D3): responded; response of consensus OR11H2 (consensus OR11H2): responded

Source: patent publication US20240279302A1, “OLFACTORY RECEPTOR EXPRESSING METHOD AND RESPONSE MEASUREMENT METHOD” (Kao Corporation, priority 2021, published 2024)
